Data taken from patent US20120094939A1, “ANTI-VIRAL COMPOUNDS, COMPOSITIONS AND METHODS” (priority 2007, published 2012).
pIC50: −log10 of the molar value. Read-outs that look alike come from different tables or passages of the source.

Tested on: OR6 cells harboring full-length genotype 1b HCV replicon ORN/C-5B/KE (HCV RNA replication)
Experiment: microbe, parasite or virus in culture
Assay type: cell-based, Hepatitis C virus (strain HCV—O
Details: 48 hours; for antiviral activity (in words): OR6 full-length replicon
Source text: (§1) HCV Replicon System-Secondary Assays. For validation, OR6 cells stably harboring the full-length genotype 1 replicon, ORN/C-5B/KE9 were used to examine compound activity in a more authentic viral polyprotein context. This replicon was derived from the 1B-2 strain (strain HCV—O, genotype 1b), in which the Renilla luciferase gene is introduced as a fusion protein with neomycin to facilitate the monitoring of HCV replication. This construct contains a tissue culture adaptive mutation in the NS3 region. Cells were cultured in an identical manner to the Huh7/Rep-Feo cells.
Secondary Assays-Hit Validation. Several hits from primary HTS, as well as functionally related compounds, were purchased from Sigma (St. Louis, Mo.), Calbiochem (San Diego, Calif.), and Microsource (Gaylordsville, Conn.). […] Ten mM of stock solutions of the individual compounds to be tested was prepared in the appropriate solvent (DMSO, ethanol, or H2O, according to the manufacturer's information) and stored at −20° C. Cells were seeded into 96-well plates at a density of 2000 cells/well in 100 μL of medium. The cells were incubated for 24 hours at 37° C. to obtain the optimal level of adherence. Solutions of candidate hit compounds were added to wells to achieve final concentrations of 0.1, 1, 10, 50, and 100 μM. The final concentration of DMSO or ethanol in every well was 1% or less by volume. Mock solutions were used as a negative control. PEG-IFN and ribavirin were used as positive controls at various concentrations, alone and in combination. The plates were then incubated at 37° C. with 5% CO2 for 48 hours before they were analyzed. Luminescent signal was generated using the Renilla luciferase assay kit (Promega) according to the manufacturer's instructions. Signal was then detected using a LumiCount (Packard BioScience Company) luminometer. Cell viability was assessed using CellTiter-Glo (Promega), following the manufacturer's instructions. All experiments were performed in triplicate.
Secondary Assays-Data Analysis. Values were presented as a percentage of mock treated control, which was arbitrarily set at 100%. Data were expressed as the mean (±) SD. […] Synergy calculations were performed using CalcuSyn (Biosoft; Cambridge, England).
as §1, with “System—Secondary Assays:” for “System-Secondary Assays.”, “For replicon” for “For”, “ORN/C-5B/KE” for “ORN/C-5B/KE9”, “(Burke J. Am. Chem. Soc. (2004) 126:14095-14104).” for “to examine compound activity in a more authentic viral polyprotein context.”, “the Neomycin resistance cassette” for “neomycin”
Secondary Assays—Hit Validation: 10 mM of stock solutions of the individual compounds to be tested were prepared in DMSO and stored at −20° C. Cells were seeded into 96-well plates at a density of 2,000 cells/well in 100 μl of medium. The cells were incubated for 24 hours at 37° C. to obtain the optimal level of adherence. Solutions of candidate hit compounds were added to wells to achieve varying final concentrations between 0.01 and 100 μM. The final concentration of DMSO or ethanol in every well was 1% or less by volume. Mock solutions were used as a negative control. Peginterferon-alfa-2b (PEG-Intron; Schering Corp.; Kenilworth, N.J.) and ribavirin (Sigma; St. Louis, Mo.) were used as positive controls at various concentrations, alone and in combination. The plates were then incubated at 37° C. with 5% CO2 for 48 hours before they were analyzed. Luminescent signal was generated using the Renilla luciferase assay kit (Promega; Madison, Wis.) according to the manufacturer's instructions. Signal was then detected using a LumiCount™ (Packard BioScience Company; Downers Grove, Ill.) luminometer.

[1] = Hepatitis C virus, OR6, 48 h, read-out: IC50 (HCV RNA replication, luciferase), OR6 full-length genotype 1b replicon

Compound	pIC50 [1]	antiviral activity (in words)	pIC50 (read-out: IC50 (HCV RNA replication, luciferase), OR6 full-length genotype 1b replicon)
Cc1cc2c(nc1C)CCCN2CC(C)O/N=C1/[C@H]2CCn3c(=O)n(-c4ccccc4)c(=O)n3[C@H]2[C@H](O)[C@@H]2O[C@H]12 (some centres unmarked) [BUCMLD-B10A5]	~6.00		
COc1cc2c(cc1OC)-c1c/c(=N\c3c(C)cc(C)cc3C)n(C)c(=O)n1CC2 [trequinsin, reference compound]		antiviral activity at the lower concentrations of 1 and 10 μM	
CC(=O)OC[C@H]1O[C@H](CCO/N=C2/[C@H]3CCn4c(=O)n(-c5ccccc5)c(=O)n4[C@H]3[C@H](O)[C@@H]3O[C@H]23)C=C[C@@H]1OC(C)=O [BUCMLD-B10A3]	< 6.30		> 6.00
O=C1C2(CO)C=C(Br)C(CC2c2ccccc2)[C@@]12CO2 (some centres unmarked) [SM_A6B5_2P100]	~5.15		
Cc1cc(C)c(-c2cc([C@H](C)O/N=C3/[C@H]4CCn5c(=O)n(-c6ccccc6)c(=O)n5[C@H]4[C@H](O)[C@@H]4O[C@H]34)on2)c(C)c1 [BUCMLD-B10A11]	> 6.30		
O=C1C2C=C(I)C(CC2OCCCCO)[C@@]12CO2 (some centres unmarked) [SM_A5B3_2P141]	4.30 to 5.00	modest antiviral activity	
